ChEMBL document CHEMBL5465560, “Selectivity Literature for EUbOPEN Chemogenomic Library” (2024)

Legend:
[1] = molecular target: Mitogen-activated protein kinase kinase kinase kinase 1 (Homo sapiens) (UniProt Q92918); experiment: Selectivity interaction (Ambit KINOMEscan and KiNATiv profiling in Jurkat cells) EUB0000090b MAP4K1; format: cell-based; settings: at 1 µM
[2] = molecular target: Mitogen-activated protein kinase kinase kinase 20 (Homo sapiens) (UniProt Q9NYL2); experiment: Selectivity interaction (ActivX KiNativ screen (ex vivo kinase selectivity in human PBMCs)) EUB0001619a MAP3K20; format: cell-based; settings: PBMC, at 1 µM
[3] = molecular target: T1, Mitogen-activated protein kinase kinase kinase 5 (Homo sapiens) (UniProt Q99683); experiment: Selectivity interaction (Kinase panel (DSF assay)) EUB0001558a MAP3K5
T1 sequence (whole entry): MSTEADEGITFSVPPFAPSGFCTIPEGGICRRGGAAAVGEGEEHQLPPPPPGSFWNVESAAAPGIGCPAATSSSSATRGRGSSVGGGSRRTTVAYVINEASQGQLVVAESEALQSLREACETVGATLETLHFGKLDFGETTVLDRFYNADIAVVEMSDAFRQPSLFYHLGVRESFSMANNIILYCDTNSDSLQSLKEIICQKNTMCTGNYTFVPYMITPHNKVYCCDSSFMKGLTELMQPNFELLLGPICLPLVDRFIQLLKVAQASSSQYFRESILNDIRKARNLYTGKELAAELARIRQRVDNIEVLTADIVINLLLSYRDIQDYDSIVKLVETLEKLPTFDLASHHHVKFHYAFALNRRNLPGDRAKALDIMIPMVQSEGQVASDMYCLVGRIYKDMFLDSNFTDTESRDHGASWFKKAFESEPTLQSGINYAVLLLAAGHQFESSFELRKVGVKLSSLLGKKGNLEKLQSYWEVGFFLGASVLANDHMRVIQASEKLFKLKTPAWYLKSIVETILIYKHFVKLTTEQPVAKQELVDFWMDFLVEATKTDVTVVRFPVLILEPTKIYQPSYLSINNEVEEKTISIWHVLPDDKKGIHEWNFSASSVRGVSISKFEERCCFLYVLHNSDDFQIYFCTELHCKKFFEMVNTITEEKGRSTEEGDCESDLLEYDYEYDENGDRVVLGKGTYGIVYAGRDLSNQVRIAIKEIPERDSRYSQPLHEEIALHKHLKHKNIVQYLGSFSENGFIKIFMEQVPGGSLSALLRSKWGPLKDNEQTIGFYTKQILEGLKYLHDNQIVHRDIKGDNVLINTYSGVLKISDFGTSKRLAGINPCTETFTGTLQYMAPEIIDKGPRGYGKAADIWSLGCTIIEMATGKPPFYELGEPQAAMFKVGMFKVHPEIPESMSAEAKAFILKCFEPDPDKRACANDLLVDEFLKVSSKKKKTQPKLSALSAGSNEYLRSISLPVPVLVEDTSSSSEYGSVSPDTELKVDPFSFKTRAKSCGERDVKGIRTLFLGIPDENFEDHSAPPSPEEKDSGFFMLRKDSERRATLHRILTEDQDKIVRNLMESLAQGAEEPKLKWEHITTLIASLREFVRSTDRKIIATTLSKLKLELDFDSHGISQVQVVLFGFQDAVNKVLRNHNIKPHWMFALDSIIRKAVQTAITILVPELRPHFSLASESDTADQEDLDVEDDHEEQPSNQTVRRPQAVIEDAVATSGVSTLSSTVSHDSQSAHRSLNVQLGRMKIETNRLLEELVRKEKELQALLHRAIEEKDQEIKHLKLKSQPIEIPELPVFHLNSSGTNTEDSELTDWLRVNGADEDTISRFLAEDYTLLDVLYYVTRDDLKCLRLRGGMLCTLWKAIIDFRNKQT

[4] = molecular target: T2, Cyclin-dependent kinase 11A (Homo sapiens) (UniProt Q9UQ88); experiment: Selectivity interaction (KinomeScan (DiscoverX)) EUB0000045b CDK11A; settings: at 10 µM
T2 sequence (whole entry): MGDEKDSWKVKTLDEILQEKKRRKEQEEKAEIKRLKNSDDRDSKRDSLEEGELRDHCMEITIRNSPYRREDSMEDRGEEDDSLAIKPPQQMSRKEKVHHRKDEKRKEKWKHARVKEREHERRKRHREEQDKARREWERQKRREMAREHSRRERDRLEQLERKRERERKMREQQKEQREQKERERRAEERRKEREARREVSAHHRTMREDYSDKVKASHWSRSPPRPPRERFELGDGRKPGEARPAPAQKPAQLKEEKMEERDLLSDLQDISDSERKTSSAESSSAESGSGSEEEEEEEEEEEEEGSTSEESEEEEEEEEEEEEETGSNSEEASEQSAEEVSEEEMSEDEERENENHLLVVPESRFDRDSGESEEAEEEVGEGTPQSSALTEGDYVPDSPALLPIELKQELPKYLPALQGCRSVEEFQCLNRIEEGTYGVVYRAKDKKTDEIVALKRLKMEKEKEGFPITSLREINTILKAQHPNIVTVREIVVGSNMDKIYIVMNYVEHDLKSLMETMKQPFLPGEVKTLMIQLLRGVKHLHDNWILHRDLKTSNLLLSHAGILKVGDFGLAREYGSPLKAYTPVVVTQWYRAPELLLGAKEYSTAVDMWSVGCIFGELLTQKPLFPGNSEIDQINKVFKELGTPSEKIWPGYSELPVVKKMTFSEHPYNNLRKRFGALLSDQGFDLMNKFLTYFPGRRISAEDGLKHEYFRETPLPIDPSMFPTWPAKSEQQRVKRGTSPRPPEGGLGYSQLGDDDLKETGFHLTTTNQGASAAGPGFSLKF

[5] = molecular target: STE20/SPS1-related proline-alanine-rich protein kinase (Homo sapiens) (UniProt Q9UEW8); experiment: Selectivity interaction (Kinase panel (KiNativ target engagement assay in Jurkat cells)) EUB0001635a STK39; format: cell-based; settings: Selectivity number of off-targets 0.0, Selectivity number of targets 233.0, Source Knowledge https://www.sciencedirect.com/science/article/pii/S2451945619300674?via%3Dihub, at 1 µM
[6] = molecular target: Serine/threonine-protein kinase tousled-like 2 (Homo sapiens) (UniProt Q86UE8); experiment: Selectivity interaction (ActivX KiNativ screen (kinase selectivity in THP-1 cell lysates)) EUB0000639a TLK2; format: subcellular; settings: lysate, at 0.2 µM
[7] = molecular target: Serine/threonine-protein kinase 38-like (Homo sapiens) (UniProt Q9Y2H1); experiment: Selectivity interaction (ActivX KiNativ screen (kinase selectivity in THP-1 cell lysates)) EUB0000639a STK38L; format: subcellular; settings: lysate, at 1 µM
[8] = molecular target: Serine/threonine-protein kinase PLK3 (Homo sapiens, UniProt Q9H4B4); experiment: Selectivity interaction (KinomeScan (DiscoverX)) EUB0000092b PLK3; settings: at 10 µM
[9] = molecular target: Dual specificity testis-specific protein kinase 1 (Homo sapiens) (UniProt Q15569); experiment: Selectivity interaction (LanthaScreen Eu Kinase Binding Assay) EUB0001632a TESK1; settings: at 10 µM
Dual specificity testis-specific protein kinase 1 (Homo sapiens), sequence (Q15569 whole entry, looked up): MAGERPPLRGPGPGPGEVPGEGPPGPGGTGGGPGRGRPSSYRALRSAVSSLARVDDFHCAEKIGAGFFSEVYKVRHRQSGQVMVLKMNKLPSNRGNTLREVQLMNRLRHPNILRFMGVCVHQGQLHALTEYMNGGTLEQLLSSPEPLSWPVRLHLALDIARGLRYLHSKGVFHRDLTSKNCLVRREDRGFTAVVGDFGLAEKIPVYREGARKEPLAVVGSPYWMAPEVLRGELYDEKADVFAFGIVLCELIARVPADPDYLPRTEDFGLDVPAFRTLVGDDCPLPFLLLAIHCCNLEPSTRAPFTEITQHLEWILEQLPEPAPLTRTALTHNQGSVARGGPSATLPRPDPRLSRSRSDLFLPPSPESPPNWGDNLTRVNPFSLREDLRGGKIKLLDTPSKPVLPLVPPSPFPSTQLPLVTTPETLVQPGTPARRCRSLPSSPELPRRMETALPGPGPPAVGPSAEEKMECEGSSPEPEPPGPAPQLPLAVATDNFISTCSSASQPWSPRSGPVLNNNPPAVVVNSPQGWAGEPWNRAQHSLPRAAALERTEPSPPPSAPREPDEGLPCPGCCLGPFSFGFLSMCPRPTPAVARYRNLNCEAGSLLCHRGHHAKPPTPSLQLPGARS

Serine/threonine-protein kinase tousled-like 2 (Homo sapiens), sequence (Q86UE8 whole entry, looked up): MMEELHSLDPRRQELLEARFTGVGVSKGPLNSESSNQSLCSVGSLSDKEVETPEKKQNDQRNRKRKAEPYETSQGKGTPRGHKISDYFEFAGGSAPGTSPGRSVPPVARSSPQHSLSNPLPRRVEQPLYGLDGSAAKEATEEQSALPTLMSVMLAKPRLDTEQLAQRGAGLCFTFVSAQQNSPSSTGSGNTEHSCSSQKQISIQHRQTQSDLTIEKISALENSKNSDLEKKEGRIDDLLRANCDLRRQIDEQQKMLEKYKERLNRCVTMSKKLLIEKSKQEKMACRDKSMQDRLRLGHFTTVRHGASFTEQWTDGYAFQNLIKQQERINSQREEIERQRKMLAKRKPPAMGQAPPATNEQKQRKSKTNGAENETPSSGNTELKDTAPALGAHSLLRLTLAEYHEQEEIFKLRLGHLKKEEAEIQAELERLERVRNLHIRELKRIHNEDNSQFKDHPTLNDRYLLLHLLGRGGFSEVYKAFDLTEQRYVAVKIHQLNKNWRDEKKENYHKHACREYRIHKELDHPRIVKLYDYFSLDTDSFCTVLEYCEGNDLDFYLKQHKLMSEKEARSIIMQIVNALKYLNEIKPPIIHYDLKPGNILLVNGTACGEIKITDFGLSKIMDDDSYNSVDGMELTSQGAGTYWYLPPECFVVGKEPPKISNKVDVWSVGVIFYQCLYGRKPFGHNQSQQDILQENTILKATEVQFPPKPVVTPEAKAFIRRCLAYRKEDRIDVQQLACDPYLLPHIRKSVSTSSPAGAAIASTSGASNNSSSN
Mitogen-activated protein kinase kinase kinase kinase 1 (Homo sapiens), sequence (Q92918 whole entry, looked up): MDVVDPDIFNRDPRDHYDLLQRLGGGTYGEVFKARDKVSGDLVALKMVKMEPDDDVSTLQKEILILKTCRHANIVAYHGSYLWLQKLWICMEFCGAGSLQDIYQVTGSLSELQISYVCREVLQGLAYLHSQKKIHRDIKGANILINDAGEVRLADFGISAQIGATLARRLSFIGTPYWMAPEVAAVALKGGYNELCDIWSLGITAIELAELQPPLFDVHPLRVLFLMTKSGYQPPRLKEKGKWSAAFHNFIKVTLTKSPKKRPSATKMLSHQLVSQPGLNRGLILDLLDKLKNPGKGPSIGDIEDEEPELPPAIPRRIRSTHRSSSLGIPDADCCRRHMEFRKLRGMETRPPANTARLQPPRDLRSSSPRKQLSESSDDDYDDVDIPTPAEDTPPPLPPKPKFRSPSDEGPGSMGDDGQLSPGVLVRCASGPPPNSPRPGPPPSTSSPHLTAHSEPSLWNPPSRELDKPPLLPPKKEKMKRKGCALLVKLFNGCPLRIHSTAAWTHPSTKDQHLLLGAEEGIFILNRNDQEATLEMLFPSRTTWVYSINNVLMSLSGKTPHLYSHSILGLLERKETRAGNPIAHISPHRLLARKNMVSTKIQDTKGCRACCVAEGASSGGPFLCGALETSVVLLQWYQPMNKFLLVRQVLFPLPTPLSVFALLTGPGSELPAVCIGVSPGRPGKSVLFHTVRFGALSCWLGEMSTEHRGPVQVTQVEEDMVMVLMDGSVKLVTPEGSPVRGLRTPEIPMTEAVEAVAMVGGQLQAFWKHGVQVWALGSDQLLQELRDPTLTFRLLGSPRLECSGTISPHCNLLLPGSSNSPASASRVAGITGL
Serine/threonine-protein kinase 38-like (Homo sapiens), sequence (Q9Y2H1 2-464 limits assumed): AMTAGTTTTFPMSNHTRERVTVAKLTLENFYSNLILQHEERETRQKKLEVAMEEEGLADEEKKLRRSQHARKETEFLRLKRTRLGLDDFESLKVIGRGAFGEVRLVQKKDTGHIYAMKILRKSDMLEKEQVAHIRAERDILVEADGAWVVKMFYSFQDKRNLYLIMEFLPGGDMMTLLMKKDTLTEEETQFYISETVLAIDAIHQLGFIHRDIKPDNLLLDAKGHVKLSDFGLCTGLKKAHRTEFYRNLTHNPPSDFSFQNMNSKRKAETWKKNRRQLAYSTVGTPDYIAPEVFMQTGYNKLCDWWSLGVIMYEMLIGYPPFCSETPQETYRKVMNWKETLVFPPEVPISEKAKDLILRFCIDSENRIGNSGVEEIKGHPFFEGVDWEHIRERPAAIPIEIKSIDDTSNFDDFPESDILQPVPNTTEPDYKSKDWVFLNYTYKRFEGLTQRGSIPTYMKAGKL
Mitogen-activated protein kinase kinase kinase 20 (Homo sapiens), sequence (Q9NYL2 2-800 limits assumed): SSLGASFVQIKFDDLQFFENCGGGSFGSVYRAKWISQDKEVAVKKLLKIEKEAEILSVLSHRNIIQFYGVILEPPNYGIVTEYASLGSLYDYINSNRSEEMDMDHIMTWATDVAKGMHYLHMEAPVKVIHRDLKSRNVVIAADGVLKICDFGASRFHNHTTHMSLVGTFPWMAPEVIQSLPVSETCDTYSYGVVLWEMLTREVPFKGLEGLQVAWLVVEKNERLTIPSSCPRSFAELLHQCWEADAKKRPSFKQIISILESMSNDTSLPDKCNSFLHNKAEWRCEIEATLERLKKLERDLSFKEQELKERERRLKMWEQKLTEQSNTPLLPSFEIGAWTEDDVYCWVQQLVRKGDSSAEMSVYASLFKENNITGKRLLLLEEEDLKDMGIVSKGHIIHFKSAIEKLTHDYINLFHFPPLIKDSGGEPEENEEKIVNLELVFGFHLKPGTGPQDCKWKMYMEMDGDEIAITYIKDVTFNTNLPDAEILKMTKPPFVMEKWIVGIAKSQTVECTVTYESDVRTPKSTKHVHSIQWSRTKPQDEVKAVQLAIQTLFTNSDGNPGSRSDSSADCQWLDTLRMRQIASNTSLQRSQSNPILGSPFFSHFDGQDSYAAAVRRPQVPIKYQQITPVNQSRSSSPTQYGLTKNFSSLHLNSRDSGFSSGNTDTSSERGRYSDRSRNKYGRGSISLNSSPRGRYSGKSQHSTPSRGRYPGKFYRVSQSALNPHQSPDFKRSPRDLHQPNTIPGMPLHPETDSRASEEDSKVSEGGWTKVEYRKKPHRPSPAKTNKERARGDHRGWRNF
Serine/threonine-protein kinase PLK3, sequence (Q9H4B4 whole entry, looked up): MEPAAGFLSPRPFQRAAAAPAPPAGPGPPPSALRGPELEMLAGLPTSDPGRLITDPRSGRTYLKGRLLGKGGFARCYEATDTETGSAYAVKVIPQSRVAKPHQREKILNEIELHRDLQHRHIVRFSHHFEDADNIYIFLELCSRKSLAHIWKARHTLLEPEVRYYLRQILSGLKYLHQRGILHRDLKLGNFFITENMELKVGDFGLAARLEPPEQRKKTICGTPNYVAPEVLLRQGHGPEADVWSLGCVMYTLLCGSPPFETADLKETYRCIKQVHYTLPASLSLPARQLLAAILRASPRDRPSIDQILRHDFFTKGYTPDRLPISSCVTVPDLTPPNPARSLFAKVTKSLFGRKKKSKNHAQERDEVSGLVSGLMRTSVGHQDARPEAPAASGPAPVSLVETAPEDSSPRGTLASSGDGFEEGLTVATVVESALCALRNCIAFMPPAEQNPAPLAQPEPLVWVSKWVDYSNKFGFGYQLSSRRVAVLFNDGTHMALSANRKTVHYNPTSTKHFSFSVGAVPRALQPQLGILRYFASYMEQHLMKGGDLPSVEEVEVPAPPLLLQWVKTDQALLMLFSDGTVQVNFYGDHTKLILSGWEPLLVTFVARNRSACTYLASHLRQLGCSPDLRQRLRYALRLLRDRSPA

SMILES: CN(C)C/C=C/C(=O)Nc1ccc(C(=O)N2CCCC(Nc3ncc(Cl)c(-c4c[nH]c5ccccc45)n3)C2)cc1 (centres undefined)
- % of control [1]: 80%

SMILES: N#Cc1cccc(-c2c[nH]c3ncnc(N4CCOCC4)c23)c1
- % of inhibition [2]: -42%

SMILES: CC(C)(O)[C@H](F)CN1Cc2cc(NC(=O)c3cnn4cccnc34)c(N3CCOCC3)cc2C1=O
- dTM [3]: 0.5 K

SMILES: C=CC(=O)Nc1cc(-n2c(=O)ccc3cnc4ccc(-c5ccc(NS(C)(=O)=O)cc5)cc4c32)ccc1C
- % of control [4]: 100%

SMILES: C=CC(=O)Nc1ccc(C(=O)Nc2[nH]nc3c2CN(C(=O)N[C@H](CN(C)C)c2ccccc2)C3(C)C)cc1
- % of engagement [5]: 11.5%

SMILES: CC[C@@H]1[C@H](F)C(=O)N[C@@H]1COc1nccc2cc(C(N)=O)c(OC)cc12 [ZIMLOVISERTIB]
- % of inhibition [6]: 16.8%
- % of inhibition [7]: 47.8%

SMILES: CCC(=O)N1CCN(c2ccc(-n3c(=O)ccc4cnc5ccc(-c6cnc7ccccc7c6)cc5c43)cc2C(F)(F)F)CC1
- % of control [8]: 87%

SMILES: Cn1cc(-n2cnc3c(NCc4nc5cc(Cl)c(Cl)cc5[nH]4)nc(N4CCOCC4)nc32)cn1
- % of inhibition [9]: -5.55%
